Test results taken from US20170296460A1, “METHOD OF IMPROVING THE APPEARANCE OF PERIORBITAL DYSCHROMIA” (The Procter & Gamble Company, priority 2016, published 2017).

Tested on: B16-F1 mouse melanoma cell line
Assay: B16 melanin synthesis inhibition assay
Format: cell-based
Settings: B16-F1 cells, OD 410 nm
Method: In this example, a commercially available B16-F1 mouse melanoma cell line from American Tissue Culture Collection, Virginia, USA was employed in a conventional melanin synthesis inhibition assay. The cell culture medium used in the assay is 500 mL of Dulbecco's Modified Eagle's Medium (DMEM), 50 mL Fetal Bovine Serum (FBS), and 5 mL of penicillin-streptomycin liquid. B16-F1 cells that are cultured in this medium and grown to greater than 90% confluency will synthesize melanin. While not intending to be bound by any theory, it is hypothesized that the melanin synthesis is stimulated by the culture medium and/or stress induced by growth to a high confluency. […] Equipment used in the assay include a CO2 incubator, such as a Forma Series Model 3110 by Therma Scientific, Massachusetts, USA; a hemocytometer, such as a Bright Line model by Hauser Scientific, Pennsylvania, USA; and a UV-Visible Spectrum Plate Reader, such as a SpectraMax250 from Molecular Devices, California, USA. […] Day 3: The cells from the T-150 flask are trypsinized, and the concentration of cells is determined using the hemacytometer. […] Read the 96 well plate using the UV-Vis Plate Reader at 410 nm to optically measure the amount of melanin produced between wells that are treated with the pumpkin seed extract and control wells that are not. […] The concentration of test agent needed to provide the IC 50 is recorded.

## Oc1ccc(OC2CCCCO2)cc1 (stereo not shown) [Deoxyarbutin]
  Concentration Needed for IC 50: 0.008 v/v
